{
  "source": "patent US20040152759A1",
  "about": "“Combination administration of an indolinone with a chemotherapeutic agent for cell proliferation disorders” (priority 2002, published 2004)",
  "key": {"[1]": {"test_system": "MX-1 human breast carcinoma", "assay_type": "in vivo", "description": "Methods for MX1 Human Breast Cancer Model\nMice/Husbandry: Female nu/nu mice (Harlan), 13 weeks of age (at pair-match; Day 1), were fed ad libitum water and an irradiated standard rodent diet. Mice were housed in static microisolators on a 12-hour light cycle. The animal care and use program specifically complies with recommendations of the Guide for Care and Use of Laboratory Animals with respect to restraint, husbandry, surgical procedures, feed and fluid regulation, and veterinary care is AAALAC accredited.\nTumor Implantation: Mice were implanted subcutaneously with 1 mm^3 MX-1 human breast carcinoma fragments in the flank. Tumors were monitored initially twice weekly, and then daily as the neoplasms reached the desired size, approximately 100 mg. […] Estimated tumor weight was calculated using the formula:\nTumor Weight(mg)=w^2×L divided by 2\nwhere w=width and L=length in mm of a MX-1 carcinoma.\n(§1) Tumors were grown to a volume of approximately 100 mm^3 prior to dosing.\nThis example evaluates the effects of combined treatment of Compound 1 and Docetaxel on efficacy and toxicity in a human breast cancer model. Tumors were grown to a volume of approximately 100 mm^3 prior to dosing.\nThis example evaluates the effects of combined treatment of Compound 1 and 5-FU on efficacy and toxicity in a human breast cancer model\nas §1\nThis example evaluates the effects of combined treatment of Compound 1 and Doxorubicin Hydrochloride on efficacy and toxicity in a human breast cancer model.\nTumors were grown to a volume of approximately 100 mm^3 prior to dosing. […] (see FIG. 6)."}, "[2]": {"test_system": "MDA-MB-435 tumor cells", "experiment": "MDA-MB-435 orthotopic human breast carcinoma bone marrow colonization model (survival)", "assay_type": "in vivo, human (xenograft in nu/nu mice)", "conditions": "vehicle 46 days", "protocol": "Methods for the MDA-MB-435 Human Breast Cancer Model\n1×10^5 MDA-MB-435 tumor cells were injected into the left cardiac ventricle of female nu/nu mice (n=10). Mice were monitored for weight loss (>20%) and hind limb paralysis as an indicator of bone marrow colonization.\nThis example evaluates the effects of combined treatment of Compound 1 and Docetaxel on efficacy and toxicity in a human breast cancer model. Efficacy is indicated by improved survival, which, in turn, is indicated by hind-limb paralysis or weight loss (>20%) due to bone marrow colonization of tumor cells.\nTumor cells were injected into the mammary fat pad of female nu/nu mice and mice were monitored for weight loss (>20%) and hind limb paralysis as an indicator of bone marrow colonization of tumor cells.\nTumor cells were injected into the left cardiac ventricle of female nu/nu mice and mice were monitored for weight loss (>20%) and hind limb paralysis as an indicator of bone marrow colonization"}, "[3]": {"test_system": "LS174t human colon carcinoma", "assay_type": "in vivo", "conditions": "Day 23", "protocol": "Methods for LS174t Human Colon Cancer Model\n(§2) 1×10^5 to 1×10^6 tumor cells were injected into the subcutaneous region of the hind flank of female nu/nu mice (n=10). Tumor growth was monitored twice a week for 2-4 weeks by caliper measurement.\nas §1"}, "[4]": {"test_system": "NCI-H526 SCLC cells", "experiment": "NCI-H526 small cell lung carcinoma subcutaneous xenograft model", "assay_type": "in vivo, human (xenograft in athymic nu/nu mice)", "conditions": "dosing began day 18 after implantation", "procedure": "Methods for NCI-H526-Human Small Cell Lung Carcinoma Model\n1×10^5 to 1×10^6 tumor cells were injected into the subcutaneous region of the hind flank of female nu/nu mice (n=10). Tumor growth was monitored twice a week for 2-4 weeks by caliper measurements.\nNCI-H526 SCLC cells were cultured using standard technique in RPMI 1640 supplemented with 10% fetal bovine serum, 2 mM glutamine, 1 mM sodium pyruvate (Life Technologies Inc., Gaithersburg, Md.), and maintained routinely in a humidified chamber at 37° C. and 5% carbon dioxide.\nCells to be implanted in mice were harvested from cell culture flasks during exponential growth, washed once with sterile phosphate-buffered saline (PBS), counted, and resuspended in PBS to a suitable concentration prior to implantation.\nNine to twelve week old female athymic nu/nu mice purchased from Charles River Laboratories (Wilmington, Mass.) were used.\nMice received subcutaneous injections into the hind flank on Day 0 with 5×10^6 NCI-H526 cells. Subcutaneous tumor-bearing athymic mice (250-300 mm^3 tumor volume) were treated either PO once daily with Compound 1 to the end of the study, intraperitoneally once daily with Cisplatin for the first 5 days, or a combination of the two. […] Tumor growth was measured twice weekly using Vernier calipers for the duration of the treatment. Tumor volumes were calculated as the product of length× width× height."}, "[5]": {"test_system": "HT-29 human colon carcinoma", "assay_type": "in vivo", "conditions": "Compound 1 20 mg/kg PO QD to end, monotherapy, Day 38", "protocol": "Methods for HT-29 Human Colon Cancer Model\nas §2, §1"}},
  "note": "“And” between values parts separate entries of the source, which are not always exact repeats. Identical values can stand only once. Counter-ions that a name gives are not always drawn. Like-named read-outs stand apart in the source and are kept apart here.",
  "data": [
    {"smiles": "CC(=O)O[C@@]12CO[C@@H]1C[C@H](O)[C@@]1(C)C(=O)[C@H](O)C3=C(C)[C@@H](OC(=O)[C@H](O)[C@@H](NC(=O)OC(C)(C)C)c4ccccc4)C[C@@](O)([C@@H](OC(=O)c4ccccc4)[C@H]21)C3(C)C", "note": "[Docetaxel]", "values": [
      {"measurement": "% Inhibition", "setting": "[1]; Biological Example 1, Docetaxel 10 mg/kg IV QWK x 3, monotherapy, Day 16", "result": 60, "unit": "%"},
      {"measurement": "% Inhibition", "setting": "[1]; Biological Example 1, Docetaxel 15 mg/kg IV QWK x 3, monotherapy, Day 16", "result": 95, "unit": "%"},
      {"measurement": "% Inhibition", "setting": "[1]; Biological Example 2, Docetaxel 10 mg/kg IV QWK x 3, monotherapy, Day 14", "result": 36, "unit": "%"},
      {"measurement": "% Inhibition", "setting": "[1]; Biological Example 2, Docetaxel 15 mg/kg IV QWK x 3, monotherapy, Day 17", "result": 90, "unit": "%"},
      {"measurement": "Median Survival", "setting": "[2]; Docetaxel 5 mg/kg IP QWK x 3, monotherapy", "result": 52, "unit": "days"}
    ]},
    {"smiles": "CCc1c2c(nc3ccc(OC(=O)N4CCC(N5CCCCC5)CC4)cc13)-c1cc3c(c(=O)n1C2)COC(=O)[C@]3(O)CC", "note": "[CPT-11, Irinotecan, reference compound]", "values": [
      {"measurement": "% Inhibition", "setting": "[3]; CPT-11 100 mg/kg IP QWK x 3, monotherapy, 100 mg/kg", "result": "64% and 63.6%"}
    ]},
    {"smiles": "N.N.[Cl][Pt][Cl]", "note": "[Cisplatin, reference compound]", "values": [
      {"measurement": "Day tumor reached 900 mm^3", "setting": "[4]; Cisplatin 1.5 mg/kg IP QD x 5, monotherapy", "result": 48, "unit": "days"}
    ]},
    {"smiles": "COc1cccc2c1C(=O)c1c(O)c3c(c(O)c1C2=O)C[C@@](O)(C(=O)CO)C[C@@H]3O[C@H]1C[C@H](N)[C@H](O)[C@H](C)O1", "note": "[Doxorubicin Hydrochloride]", "values": [
      {"measurement": "% Inhibition", "setting": "[1]; Biological Example 4, Doxorubicin Hydrochloride 4 mg/kg IV QOD x 3, monotherapy, Day 14", "result": 48, "unit": "%"}
    ]},
    {"smiles": "O=c1[nH]cc(F)c(=O)[nH]1", "note": "[Compound 5-FU, 5-Fluorouracil]", "values": [
      {"measurement": "% Inhibition", "setting": "[1]; Biological Example 3, 5-FU 100 mg/kg IV QWK x 3, monotherapy, Day 15", "result": 45, "unit": "%"}
    ]},
    {"smiles": "CCN(CC)CCNC(=O)c1c(C)[nH]c(/C=C2\\C(=O)Nc3ccc(F)cc32)c1C", "note": "[Compound 1, 5-(5-Fluoro-2-oxo-1,2-dihydroindol-3-ylidenemethyl)-2,4-dimethyl-1H-pyrrole-3-carboxylic acid(2-diethylamino-ethyl)amide]", "values": [
      {"measurement": "% Inhibition", "setting": "[1]; Biological Example 1, Compound 1 40 mg/kg PO QD to end, monotherapy, Day 20, 40 mg/kg", "result": "52% and 53%"},
      {"measurement": "% Inhibition", "setting": "[1]; Biological Example 2, Compound 1 40 mg/kg PO QD to end, monotherapy, Day 17", "result": 63, "unit": "%"},
      {"measurement": "% Inhibition", "setting": "[1]; Biological Example 3, Compound 1 40 mg/kg PO QD to end, monotherapy, Day 15", "result": 57, "unit": "%"},
      {"measurement": "% Inhibition", "setting": "[1]; Biological Example 4, Compound 1 40 mg/kg PO QD to end, monotherapy, Day 14", "result": 62, "unit": "%"},
      {"measurement": "Day tumor reached 900 mm^3", "setting": "[4]; Compound 1 40 mg/kg PO QD, monotherapy", "result": 41, "unit": "days"},
      {"measurement": "Median Survival", "setting": "[2]; Compound 1 40 mg/kg PO QD to end, monotherapy", "result": 52, "unit": "days"},
      {"measurement": "% Inhibition", "setting": "[3]; Compound 1 40 mg/kg PO QD to end, monotherapy, 40 mg/kg", "result": "68% and 67.9%"},
      {"measurement": "% Inhibition", "setting": "[5]", "result": "78% and 77.8%"}
    ]}
  ]
}
